According to patent publication US20050256152A1, “Salt of a sulfonic acid containing clopidogrel and use thereof for the production of pharmaceutical formulations” (priority 2003, published 2005):
Counter-ions that a name gives are not always drawn. Like-named read-outs stand apart in the source and are kept apart here.

Key:
[1] = 2 ml 1N HCl, 5 hours
Description: (§1) 4.1 The stress stability of various salts of the clopidogrel was tested under different conditions. […] The following tests were conducted:
Then the flask is kept either at room temperature for 5 hours or at 80° C. for 5 hours.
(§2) The result is determined by means of HPLC.
(§3) In all cases, the HPLC measurements were carried out under the following conditions with UV detection: […]

[2] = for stress stability result by HPLC, alkaline: 2 ml 1N NaOH, 5 hours
Description: as §1
Then the flask is held either at room temperature for 5 hours or at 80° C. for 5 hours.
as §2, §3

[3] = 5 hours
Description: as §1
(§4) 50 mg of the salt concerned are weighed into a volumetric flask (100 ml) and 2 ml of 3% H2O2 added. Then the flask is kept either at room temperature for 5 hours or at 80° C. for 5 hours. After the end of each experiment and, optionally, cooling to room temperature, the mobile phase is added up to 100 ml.
as §2, §3

[4] = 2 ml water, 5 hours
Description: as §1
as §4, with “water” for “3% H2O2”
as §2, §3

[5] = Description: as §1
50 mg of the salt concerned are weighed into a volumetric flask (100 ml) and held at 80° C. for 20 hours. After the end of each experiment and cooling to room temperature, the mobile phase is added up to 100 ml.
as §2, §3

[6] = 75% relative humidity
[7] = 40 and 60° C., 75% relative humidity, 15 days, FIG. 4
[8] = tables 1 to 4

content after 15 days (initial value normalised to 100%) ([6]; 40° C.) [%]	content after 15 days (initial value normalised to 100%) ([6]; 60° C.) [%]	Compound	stress stability result by HPLC, acidic ([1]; 80° C.) [%]	stress stability result by HPLC, acidic ([1]; room temperature) [%]	stress stability result by HPLC, alkaline ([2]; 80° C.) [%]	stress stability result by HPLC, alkaline ([2]; room temperature) [%]	stress stability result by HPLC, oxidising ([3]; 2 ml 3% H2O2, 80° C.) [%]	stress stability result by HPLC, oxidising ([3]; 2 ml 3% H2O2, room temperature) [%]	stress stability result by HPLC, neutral ([4]; 80° C.) [%]	stress stability result by HPLC, neutral ([4]; room temperature) [%]	stress stability result by HPLC, heat ([5]; solid salt, 80° C., 20 hours) [%]	stress stability result by HPLC, heat ([5]; 20 h) [%]	further results
		COC(=O)[C@H](c1ccccc1Cl)N1CCc2sccc2C1.O=S(=O)(O)c1ccccc1 [Clopidogrel Benzene Sulfonate (Amorphous)]	2.36	0.64	25.04	0.64	2.94	0.83	3.01	0.85	11.52		stability under alkaline conditions in comparison with the hydrogen sulfate and hydrochloride salts ([2]; alkaline conditions): considerably increased stability
97.56	17.11	Clopidogrel mesylate											
103.32	66.48	Clopidogrel besylate											
		COC(=O)[C@H](c1ccccc1Cl)N1CCc2sccc2C1.O=S(=O)(O)c1ccccc1 [Clopidogrel Benzene Sulfonate (Crystalline)]	2.76	0.14	28.05	0.14	3.98	0.13	4.18	0.19	4.52		stability (decrease of content), compared with hydrogen sulfate and hydrochloride [7]: best stability values; stability in comparison with other salts (stress tests) [8]: even more stable than clopidogrel hydrogen sulfate
		COC(=O)[C@H](c1ccccc1Cl)N1CCc2sccc2C1 [Clopidogrel Hydrogen Sulfate, clopidogrel hydrogen sulfate, reference compound]										0.31	

Compound	content after 15 days (initial value normalised to 100%) ([6]; 40° C.) [%]	content after 15 days (initial value normalised to 100%) ([6]; 60° C.) [%]	stress stability result by HPLC, acidic ([1]; 80° C.) [%]	stress stability result by HPLC, acidic ([1]; room temperature) [%]	stress stability result by HPLC, alkaline ([2]; 80° C.) [%]	stress stability result by HPLC, alkaline ([2]; room temperature) [%]	stress stability result by HPLC, oxidising ([3]; 2 ml 3% H2O2, 80° C.) [%]	stress stability result by HPLC, oxidising ([3]; 2 ml 3% H2O2, room temperature) [%]	stress stability result by HPLC, neutral ([4]; 80° C.) [%]	stress stability result by HPLC, neutral ([4]; room temperature) [%]	stress stability result by HPLC, heat ([5]; solid salt, 80° C., 20 hours) [%]	stress stability result by HPLC, heat ([5]; 20 h) [%]	further results
COC(=O)[C@H](c1ccccc1Cl)N1CCc2sccc2C1 [Clopidogrel Hydrochloride, clopidogrel hydrochloride, reference compound]	93.66	42.54										32.43	
